In brackets after ≈: the same amount, converted by molar mass.

In general, solubility refers to the dissolved amount per volume that the medium holds. A high value points to much dissolved substance. For orientation: microsomal CLint means the rate of metabolic loss divided by the concentration. Read a low microsomal CLint as slow turnover.

A short description of series [1]: Solubility in FaSSIF (Fasted State Simulated Intestinal Fluid). It is filed as physicochemical. The conditions noted are these: FaSSIF pH 6.5, 25° C.; for solubility at 2 h: kinetic from dmso stock. How it is done:
Solubility in FaSSIF (Fasted State Simulated Intestinal Fluid)
Certain Compounds of the Disclosure were assessed for the apparent solubility in FaSSIF.
0.420 g of NaOH, 3.438 g of NaH2PO4 and 6.186 g of NaCl were dissolved into about 900 mL ultrapure water. The solution was adjusted to the pH of 6.5 with 1N NaOH or 1N HCl. The solution was then diluted with ultrapure water to 1000 mL at room temperature. The resulting solution is used as buffer solution.
2.240 g of FaSSIF Powder was added to about 500 mL of above-mentioned buffer solution. The solution was stirred until powder was completely dissolved. Then the solution was diluted with buffer A to 1000 mL at room temperature. This solution is FaSSIF to be used in the following experiment.
15 μL of stock solution (10 mM) of each sample was placed into their proper 96-well rack. 485 μL of FaSSIF was added into each vial of the cap-less solubility sample plate. One stir stick was added to each vial and the vial was sealed using a molded PTFE/Silicone plug. The solubility sample plate was transferred to the Eppendorf Thermomixer Comfort plate shaker and shaked at 25° C. at 1100 RPM for 2 hours. After completion of the 2 hours, the stir sticks using a big magnet were removed. The samples from the solubility sample plate were transferred into the filter plate. Using the vacuum manifold, all the samples are filtered. Aliquot of 5 μL was taken from filtrate followed by addition of 5 μL DMSO and 490 μL of a mixture of H2O and acetonitrile containing internal standard (1:1).
3 μM Standards solution (STD) was prepared from the 10 mM DMSO STD plate.as following: transferring 6 μL into the remaining empty plate, adding 194 μL of DMSO to that plate to have a STD concentration of 300 μM. From the 300 μM DMSO STD plate, 5 μL solution was transferred into the remaining empty plate. Addition of 5 μL PBS and 490 μL of a mixture of H2O and acetonitrile containing internal standard (1:1) to that plate furnished a final STD concentration of 3 μM STD solution.
The samples are analyzed and quantified against the standard of known concentration using LC/MS/MS, calculating the solubility of the test compound as following (DF means the dilution factor):
[Sample solubility in FsSSIF (04)]=Area Ratio sample×DF sample×[STD]/Area Ratio STD

A short description of series [2]: Liver microsomal stability (HLM). It is filed as in vitro ADME. The conditions noted are these: human liver microsomes 0.5 mg/mL, 1 μM compound, NADPH; for microsomal CLint at 1 μM: human, liver microsomes. On the procedure:
Liver Microsomal Stability
Certain Compounds of the Disclosure were assessed for ADME metabolic stability in human liver microsomes (HLM).
Samples were prepared by adding 222.5 μL of a master solution (100 mM phosphate buffer and 0.5 mg/mL liver microsomes (HLM)) and 25 μL of a 10 mM NADPH solution to incubation plates, which were then warmed for 10 min. Each compound was separately dissolved in DMSO to prepare 10 mM stock solutions, which were then diluted to 100 μM with acetonitrile. A reaction was started by adding 2.5 μL of the […] solution of each compound to separate incubation plates such that the final concentration of for each compound in each plate was 1 μM. Aliquots of 30 μL were taken from the reaction solution at 0.5, 5, 15, 30 and 60 minutes. The reaction was stopped by the addition of 5 volumes of cold acetonitrile with IS (100 nM alprazolam, 200 nM caffeine and 100 nM tolbutamide). Aliquot of 100 μL of the supernatant was diluted by 100 μL ultra-pure water, and the mixture was used for LC/MS/MS analysis. Peak areas were determined from extracted ion chromatograms. […]. The percentage of remaining parent was calculated from peak area of test compound or PC. The slope value, k, is determined by linear regression of the natural logarithm of percent parent remaining vs. incubation time curve. All calculations are carried out using Microsoft Excel.
The in vitro half-life (in vitro t1/2) is determined from the slope value:
Conversion of the in vitro t1/2 (in min) into the in vitro intrinsic clearance (in vitro CLint, (HLM Clint (μL/min/mg proteins))) is done using the following equation: […]
A: HLM Clint <10 μL/min/mg; B: 10 μL/min/mg≤HLM Clint <50 μL/min/mg; C: HLM Clint ≥50 μL/min/mg.
(Liver microsomes are vesicles of endoplasmic reticulum, rich in cytochrome P450 enzymes.)

For `COc1cc(Cn2c(=O)ccc3cnc(-c4c(OC)ncnc4C4CC4)c(F)c32)ccc1-c1nc(C(F)(F)F)cn1C1CC1` [Compound I-126], the solubility at 2 h in series [1] was 10 to 100 µM (≈ 6.07 to 60.7 µg/mL). The same compound registered a microsomal CLint at 1 μM in series [2] of 10 to 50 µL/min/mg.
As for `COc1ncnc(C2CC2)c1-c1ncc2cc(-c3c(C)nn(C)c3C)c(=O)n(Cc3ccc(-c4nc(C(F)(F)F)cn4C4CC4)cc3)c2n1` [Compound I-129], the solubility at 2 h in series [1] is not below 100 µM. The same compound gave an intrinsic clearance (microsomal CLint) at 1 μM in series [2] of 10 to 50 µL/min/mg.
As for `COc1ncnc(C2CC2)c1-c1ncc2cc(-c3ncccn3)c(=O)n(Cc3ccc(-c4nc(C(F)(F)F)cn4C4CC4)cc3)c2n1` [Compound I-145], the solubility at 2 h in series [1] was not below 100 µM. In series [2], the microsomal CLint at 1 μM was less than 10 µL/min/mg.
For `COc1ncnc(C2CC2)c1-c1nc(C)c2ccc(=O)n(Cc3ccc(-c4nc(C(F)(F)F)cn4C4CC4)cc3)c2n1` [Compound I-135] the same measures were not below 100 µM and less than 10 µL/min/mg.
With `COc1cc(Cn2c(=O)cnc3cnc(-c4c(OC)ncnc4C4CC4)nc32)ccc1-c1nc(C(F)(F)F)cn1C(C)C` [Compound I-119], in series [1] (2 hours), the “Solubility in FaSSIF(μM)” value is “C (Solubility ≥100 μN)”. In series [2], the “HLM Clint (μL/min/mg)” value is reported as “A (HLM Clint <10 μL/min/mg)”.
Compound `COc1cc(Cn2c(=O)cnc3cnc(-c4c(OC)ncnc4C4CC4)nc32)ccc1-c1nc(C(F)(F)F)cn1C1CC1` [Compound I-125] returned a solubility at 2 h in series [1] not below 100 µM. Moreover, the intrinsic clearance (microsomal CLint) at 1 μM in series [2] lay in the range of 10 to 50 µL/min/mg.
For `COc1ncnc(C2CC2)c1-c1ncc2cc(C3CCN(C)CC3)c(=O)n(Cc3ccc(-n4nc(C(F)(F)F)cc4C)cc3)c2n1` [Compound I-121] the same measures were not below 100 µM and less than 10 µL/min/mg.
On the same counts, the results for `COc1cc(Cn2c(=O)ccc3cnc(-c4c(OC)ncnc4C4CC4)nc32)cc(F)c1-c1nc(C(F)(F)F)cn1C(C)C` [Compound I-22, 2-(4-cyclopropyl-6-methoxypyrimidin-5-yl)-8-({3-fluoro-4-[1-isopropyl-4-(trifluoromethyl)imidazol-2-yl]-5-methoxyphenyl}methyl)pyrido[2,3-d]pyrimidin-7-one] are not below 100 µM and 10 to 50 µL/min/mg.
As for `COc1ncnc(C2CC2)c1-c1ncc2cc(-c3cnn(CCN(C)C)c3)c(=O)n(Cc3ccc(-c4nc(C(F)(F)F)cn4C4CC4)cc3)c2n1` [Compound I-132], the solubility at 2 h in series [1] was not below 100 µM. The compound also returned an intrinsic clearance (microsomal CLint) at 1 μM in series [2] of 10 to 50 µL/min/mg.
Regarding `COc1ncnc(C2CC2)c1-c1ncc2cc(-c3cn(C)c(C)n3)c(=O)n(Cc3ccc(-c4nc(C(F)(F)F)cn4C4CC4)cc3)c2n1` [Compound I-144], the solubility at 2 h in series [1] is less than 10 µM. Further, in series [2], the intrinsic clearance (microsomal CLint) at 1 μM was 10 to 50 µL/min/mg.
On the same counts, the results for `O=c1ccc2cnc(-c3c(OC(F)F)ncnc3C3CC3)nc2n1Cc1ccc(-c2nc(C(F)(F)F)cn2C2CC2)cc1` [Compound I-103] are less than 10 µM and less than 10 µL/min/mg.
On the same counts, the results for `COc1ncnc(C2CC2)c1-c1ncc2cc(-c3cccnc3)c(=O)n(Cc3ccc(-c4nc(C(F)(F)F)cn4C4CC4)cc3)c2n1` [Compound I-139] are not below 100 µM and less than 10 µL/min/mg.
On the same counts, the results for `COc1ncnc(C2CC2)c1-c1ncc2cc(-c3cnc(C)nc3)c(=O)n(Cc3ccc(-c4nc(C(F)(F)F)cn4C4CC4)cc3)c2n1` [Compound I-140] are not below 100 µM and less than 10 µL/min/mg.
The compound `COc1ncnc(C2CC2)c1-c1ncc2cc(-c3c(C)cnn3C)c(=O)n(Cc3ccc(-c4nc(C(F)(F)F)cn4C4CC4)cc3)c2n1` [Compound I-133] showed a solubility at 2 h in series [1] of 10 to 100 µM (≈ 6.54 to 65.4 µg/mL). In series [2], this compound registered a microsomal CLint at 1 μM of 10 to 50 µL/min/mg.
For `COc1cc(Cn2c(=O)ccc3cnc(-c4c(OC)ncnc4C4CC4)nc32)ccc1-n1nc(C(F)(F)F)cc1OC` [Compound I-122] the same measures were 10 to 100 µM (≈ 5.8 to 58 µg/mL) and less than 10 µL/min/mg.
On the same counts, the results for `COc1cc(Cn2c(=O)ccc3cnc(-c4c(OC)ncnc4OC)nc32)cc(F)c1-c1nc(C(F)(F)F)cn1C(C)C` [Compound I-113] are 10 to 100 µM (≈ 6 to 60 µg/mL) and 10 to 50 µL/min/mg.
For `COc1ncnc(C2CC2)c1-c1ncc2cc(-c3cnn(C)c3)c(=O)n(Cc3ccc(-c4nc(C(F)(F)F)cn4C(C)C)cc3)c2n1` [Compound I-138] the same measures were not below 100 µM and less than 10 µL/min/mg.
Regarding `COc1ncnc(C2CC2)c1-c1ncc2cc(-c3cnn(C)c3)c(=O)n(Cc3ccc(-c4nc(C(F)(F)F)cn4C)cc3)c2n1` [Compound I-64], the solubility at 2 h in series [1] was less than 10 µM. For the same compound, the intrinsic metabolic clearance (microsomal CLint) at 1 μM in series [2] was less than 10 µL/min/mg.
On the same counts, the results for `COc1ncnc(OC)c1-c1ncc2ccc(=O)n(Cc3ccc(-c4nc(C(F)(F)F)cn4C4CC4)cc3)c2n1` [Compound I-102] are not below 100 µM and 10 to 50 µL/min/mg.
On the same counts, the results for `COc1ncnc(C2CC2)c1-c1ncc2ccc(=O)n(Cc3ccc(-c4nc(C(F)(F)F)cn4C(C)C)c(F)c3OC)c2n1` [Compound I-23, 2-(4-cyclopropyl-6-methoxypyrimidin-5-yl)-8-({3-fluoro-4-[1-isopropyl-4-(trifluoromethyl)imidazol-2-yl]-2-methoxyphenyl}methyl)pyrido[2,3-d]pyrimidin-7-one] are less than 10 µM and 10 to 50 µL/min/mg.
For `COc1ncnc(C2CC2)c1-c1ncc2ccc(=O)n(Cc3ccc(-c4nc(C(F)(F)F)cn4C(C)C)cc3)c2n1` [Compound I-4, 2-(4-Cyclopropyl-6-Methoxypyrimidin-5-Yl)-8-({4-[1-Isopropyl-4-(Trifluoromethyl)Imidazol-2-Yl]Phenyl}Methyl)Pyrido[2,3-d]Pyrimidin-7-One] the same measures were less than 10 µM and less than 10 µL/min/mg.
In turn, `COc1ncnc(C2CC2)c1-c1ncc2ccc(=O)n(Cc3ccc(-n4nc(C(F)(F)F)cc4C)cc3)c2n1` [Compound I-8, 2-(4-cyclopropyl-6-methoxypyrimidin-5-yl)-8-({4-[5-methyl-3-(trifluoromethyl)pyrazol-1-yl]phenyl}methyl)pyrido[2,3-d]pyrimidin-7-one] had a solubility at 2 h in series [1] not below 100 µM. The same compound had an intrinsic metabolic clearance (microsomal CLint) at 1 μM in series [2] of 10 to 50 µL/min/mg.
On the same counts, the results for `COc1cc(Cn2c(=O)ccc3cnc(-c4c(OC)ncnc4C4CC4)nc32)ccc1-c1nc(C(F)(F)F)cn1C1CC1` [Compound I-124] are 10 to 100 µM (≈ 5.9 to 59 µg/mL) and less than 10 µL/min/mg.
For `COc1ncnc(C2CC2)c1-c1ncc2nc(N3CCN(C)CC3)c(=O)n(Cc3ccc(-c4nc(C(F)(F)F)cn4C4CC4)cc3)c2n1` [Compound I-97] the same measures were not below 100 µM and 10 to 50 µL/min/mg.
For `COc1cc(Cn2c(=O)cnc3cnc(-c4c(OC)ncnc4C4CC4)nc32)cc(F)c1-c1nc(C(F)(F)F)cn1C(C)C` [Compound I-107] the same measures were not below 100 µM and less than 10 µL/min/mg.
Consider `COc1ncnc(C2CC2)c1-c1ncc2cc(-c3cnn(C)c3)c(=O)n(Cc3ccc(-c4nc(C(F)(F)F)cn4C4CC4)cc3)c2n1` [Compound I-127], for which the solubility at 2 h in series [1] was not below 100 µM. In addition, the intrinsic clearance (microsomal CLint) at 1 μM in series [2] was less than 10 µL/min/mg.
